Data reported in patent US20260176289A1, “SMALL MOLECULE INHIBITORS OF KRAS PROTEINS” (Merck Sharp & Dohme LLC, priority 2022, published 2026).

Tests used:
AsPC-1 cells = experiment: Cellular phospho-ERK assay, AsPC-1 cells (homozygous KRAS-G12D); format: cell-based; conditions: Homo sapiens, ASPC1, 2 h, 2 hours compound incubation, read-out: AsPC1 pERK IC50
Procedure, shortened: (§1)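 ERK phosphorylation relative to total ERK is the endpoint, detected by AlphaScreen-based SureFire multiplex following a 2-hour treatment at 37 °C. Compounds are titrated 1:3 over ten points from 30 μM.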

KRAS-WT = KRAS-WT (Homo sapiens, UniProt P01116); experiment: SOS-catalyzed nucleotide exchange assay (Procedure A, TR-FRET), KRAS-WT; format: biochemical; conditions: nucleotide exchange, read-out: KRAS WT GNE IC50
Procedure, shortened: (§2)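 Biotinylated RAS (KRAS-G12C carries C51S/C80L/C118S; others WT background) preloaded with Bodipy-GDP plus Tb-streptavidin, preincubated with compound 60 min at RT, then human SOS and 3 mM GTP added. Final RAS/SOS: G12C 3 nM/40 nM, 60 min; WT 1 nM/40 nM, 60 min; G12V 1.25 nM/160 nM, 90 min; NRAS 1.25 nM/40 nM, 60 min. TR-FRET 520/495 ratio normalized to DMSO and saturating inhibitor; 10-point curves fit four-parameter logistic.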

KRAS-G12D = KRAS-G12D (Homo sapiens, UniProt P01116, G12D); experiment: SOS-catalyzed nucleotide exchange assay (Procedure A, TR-FRET), KRAS-G12D; format: biochemical; conditions: nucleotide exchange, read-out: KRAS G12D GNE IC50
Procedure, shortened: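 Signal ratio (520/495 nm, excitation 340 nm) reports Bodipy-GDP retention on biotinylated RAS after SOS-catalyzed exchange with 3 mM GTP. SOS was 40 nM, except 160 nM for G12V. Room-temperature exchange lasted 60 min (90 min for G12V), following a 60 min compound preincubation.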

HRAS = HRAS (Homo sapiens, UniProt P01112); experiment: SOS-catalyzed nucleotide exchange assay (Procedure A, TR-FRET), HRAS; format: biochemical; conditions: read-out: HRAS GNE IC50
From the text: Procedure for SOS-Catalyzed Nucleotide Exchange Assay for KRAS-WT, G12C/D/V, G13D, HRAS, and NRAS (Procedure A)
Recombinant KRAS-G12C protein used in this assay has an additional triple mutation (C51S/C80L/C118S). Whereas KRAS-WT, G12D/V, G13D, HRAS and NRAS are in context of their WT protein sequence background. Specifically, the SOS-catalyzed nucleotide exchange assay utilizes a preformed TR-FRET complex containing a specific biotinylated RAS protein (KRAS-WT, G12C/V/D, G13D, HRAS, NRAS; described above) with Bodipy-GDP, and Terbium-streptavidin. Compounds are preincubated with this complex for 60 minutes. Subsequently, recombinant human SOS protein and unlabeled GTP are added to initiate the exchange reaction. Small molecule inhibitors stabilize the Bodipy-GDP complex whereas the untreated protein rapidly exchanges Bodipy-GDP for unlabeled GTP resulting in reduced TR-FRET signal.
To assemble the preformed TR-FRET complexes, each biotinylated RAS protein is diluted to 2 μM in an EDTA Buffer (20 mM HEPES pH 7.5, 50 mM sodium chloride, 10 mM EDTA, and 0.01% Tween) and incubated at room temperature for one hour. This mixture is then further diluted to 90 nM in an Assay Buffer (20 mM HEPES pH 7.5, 150 mM sodium chloride, 10 mM magnesium chloride, and 0.005% Tween) containing 15 nM of Terbium-Streptavidin (Invitrogen, catalog #PV3577) and 900 nM of Bodipy-GDP (Invitrogen, catalog #G22360) and incubated at room temperature for six hours. It should be noted that this preformed TR-FRET complex for each of the RAS protein were made ahead of time, aliquoted and stored at −80° C. until the day of the experiment.
Each test compound (10 mM stock in DMSO) is diluted in DMSO to make a final-10-point, 3-fold dilution and is acoustically dispensed into a 384-well assay plate (Corning, catalog #3820) using an Echo 550 (Labcyte). Each well of the assay plate receives 3 μL of a specific 3×RAS preformed TR-FRET complex and 3 μL of Assay Buffer and is incubated at room temperature for 60 minutes (preincubation time). Each well then receives 3 μL of 3×recombinant human SOS protein and GTP (Sigma, G8877) in Assay Buffer and is incubated at room temperature for 30 minutes (G13D), 60 minutes (KRAS WT/G12C/D, H/NRAS) or 90 minutes for G12V. The final reaction in each well of 9 μL consists of 3 mM GTP, specific Ras and SOS proteins in the following concentrations: KRAS-G12C/SOS=3 nM/40 nM, KRAS-WT and G12D/SOS=1 nM/40 nM, KRAS-G12V/SOS=1.25 nM/160 nM. KRAS-G13D/SOS=1.25 nM/0 nM, HRAS and NRAS=1.25 nM/40 nM.
The time-resolved fluorescence resonance energy transfer (TR-FRET) signal is measured on an Envision (PerkinElmer) plate reader: Excitation filter=340 nm; emission 1=495 nm; emission2=520 nm; dichroic mirror=D400/D505; delay time=[…]. The signal of each well is determined as the ratio of the emission at 520 nm to that at 495 nm. Percent effect of each well is determined after normalization to control wells containing DMSO (no effect) or a saturating concentration of inhibitor (max effect). The apparent effect as a function of compound concentration is fit to a four-parameter logistic equation.

MKN-1 cells = experiment: Cellular phospho-ERK assay, MKN-1 cells (amplified wild-type KRAS); format: cell-based; conditions: Homo sapiens, 2 hours compound incubation, read-out: MKN1 pERK IC50
Procedure, shortened: as §1

KRAS-G12V = KRAS-G12V (Homo sapiens, UniProt P01116, G12V); experiment: SOS-catalyzed nucleotide exchange assay (Procedure A, TR-FRET), KRAS-G12V; format: biochemical; conditions: nucleotide exchange, read-out: KRAS G12V GNE IC50
Procedure, shortened: as §2

KRAS-G13D = KRAS-G13D (Homo sapiens, UniProt P01116, G13D); experiment: SOS-catalyzed nucleotide exchange assay (Procedure A, TR-FRET), KRAS-G13D; format: biochemical; conditions: nucleotide exchange, Procedure A; read-out: KRAS G13D GNE IC50
[1] = biological target: KRAS-G12C (C51S/C80L/C118S) (Homo sapiens, UniProt P01116, C118S/C51S/C80L/G12C); experiment: SOS-catalyzed nucleotide exchange assay (Procedure A, TR-FRET), KRAS-G12C; format: biochemical; conditions: nucleotide exchange, Procedure A; read-out: KRAS G12C GNE IC50
Procedure, shortened: as §2

SW620 cells = experiment: Cellular phospho-ERK assay, SW620 cells (homozygous KRAS-G12V); format: cell-based; conditions: Homo sapiens, SW-620, 2 hours compound incubation, read-out: SW620 pERK IC50
Procedure, shortened: as §1

Chain of KRAS-G12C (C51S/C80L/C118S) (P01116 with tags, fused parts or gaps isoform P01116-2 G12C/C51S/C80L/C118S): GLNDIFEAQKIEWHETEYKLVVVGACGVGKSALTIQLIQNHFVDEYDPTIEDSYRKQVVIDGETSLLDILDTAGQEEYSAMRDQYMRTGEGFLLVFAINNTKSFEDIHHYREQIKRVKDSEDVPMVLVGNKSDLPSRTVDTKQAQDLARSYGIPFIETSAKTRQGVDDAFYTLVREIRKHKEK
Chain of KRAS-G13D (P01116 with tags, fused parts or gaps isoform P01116-2 G13D): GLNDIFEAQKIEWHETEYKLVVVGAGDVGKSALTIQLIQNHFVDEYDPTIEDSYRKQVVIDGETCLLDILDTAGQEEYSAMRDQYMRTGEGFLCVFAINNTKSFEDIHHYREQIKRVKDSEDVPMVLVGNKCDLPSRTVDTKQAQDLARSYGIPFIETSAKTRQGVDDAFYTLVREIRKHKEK
Chain of KRAS-WT (P01116 with tags, fused parts or gaps isoform P01116-2): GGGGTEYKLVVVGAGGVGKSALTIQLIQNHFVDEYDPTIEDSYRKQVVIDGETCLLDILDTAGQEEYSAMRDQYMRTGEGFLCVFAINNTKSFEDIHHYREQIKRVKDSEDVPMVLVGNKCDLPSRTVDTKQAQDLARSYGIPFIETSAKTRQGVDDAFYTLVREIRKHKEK
Chain of KRAS-G12V (P01116 with tags, fused parts or gaps isoform P01116-2 G12V): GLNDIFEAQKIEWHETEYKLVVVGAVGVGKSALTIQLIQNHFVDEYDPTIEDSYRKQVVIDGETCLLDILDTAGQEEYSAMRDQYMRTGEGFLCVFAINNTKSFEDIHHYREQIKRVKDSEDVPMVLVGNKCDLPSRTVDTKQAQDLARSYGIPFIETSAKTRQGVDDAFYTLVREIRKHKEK
Chain of HRAS (P01112 with tags, fused parts or gaps): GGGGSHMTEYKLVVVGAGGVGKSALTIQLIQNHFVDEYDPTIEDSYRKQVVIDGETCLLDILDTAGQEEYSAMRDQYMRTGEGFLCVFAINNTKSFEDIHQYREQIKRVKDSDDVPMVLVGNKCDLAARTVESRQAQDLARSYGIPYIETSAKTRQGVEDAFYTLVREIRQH
Chain of KRAS-G12D (P01116 with tags, fused parts or gaps isoform P01116-2 G12D): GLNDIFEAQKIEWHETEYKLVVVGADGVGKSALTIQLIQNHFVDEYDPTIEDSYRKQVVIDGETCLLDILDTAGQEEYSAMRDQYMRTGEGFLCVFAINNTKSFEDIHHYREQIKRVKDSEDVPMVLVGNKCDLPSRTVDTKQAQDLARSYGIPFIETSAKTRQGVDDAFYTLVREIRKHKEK

IC50 (AsPC-1 cells) | IC50 (KRAS-WT) | IC50 (KRAS-G12D) | IC50 (HRAS) | IC50 (MKN-1 cells) | IC50 (KRAS-G12V) | IC50 (KRAS-G13D) | IC50 [1] | IC50 (SW620 cells) | Structure (SMILES)
0.0559 µM | 0.016 µM | 0.00375 µM | 1.61 µM | 0.0326 µM | 0.0209 µM | 0.0389 µM | 0.105 µM | 0.023 µM | C[C@H](N(C)C)[C@@]1(COc2nc(N3CCOC[C@@](C)(O)C3)c3c(n2)sc2c(-c4c(C5CC5)c(Cl)cc5[nH]ncc45)nccc23)CC1(F)F [Ex-215, (6S)-4-(8-(6-chloro-5-cyclopropyl-1H-indazol-4-yl)-2-(((R)-1-((S)-1-(dimethylamino)-ethyl)-2,2-difluoro-cyclopropyl)meth-oxy)pyrido[4′,3′: 4,5]thieno[2,3-d]pyrimidin-4-yl)-6-methyl-1,4-oxaze-pan-6-ol]
0.0194 µM | 0.00537 µM | 0.00272 µM | 3.31 µM | 0.0235 µM | 0.0119 µM | 0.00548 µM | 0.019 µM | 0.00981 µM | C=C1CN2CCC[C@@]2(COc2nc(N3CCOC[C@@](C)(O)C3)c3c(n2)sc2c(-c4c(C5CC5)c(Cl)cc5[nH]ncc45)nccc23)C1 [Ex-224, (6S)-4-(8-(6-chloro-5-cyclopropyl-1H-indazol-4-yl)-2-(((S)-2-methylene-tetrahydro-1H-pyrrolizin-7a(5H)-yl)methoxy)pyrido [4′,3′:4,5]thieno[2,3-d]pyrimidin-4-yl)-6-methyl-1,4-oxaze-pan-6-ol]
0.0738 µM | 0.0202 µM | 0.00269 µM | 0.943 µM | 0.0365 µM | 0.0155 µM | 0.0213 µM | 0.0114 µM | 0.0512 µM | C[C@@]1(O)COCCN(c2nc(OC[C@]3(CN4CC5(CCCOC5)C4)CC3(F)F)nc3sc4c(-c5c(C6(F)CC6)c(Cl)cc6[nH]ncc56)nccc4c23)C1 [Ex-249, (6S)-4-(2-(((R)-1-((6-oxa-2-azaspiro[3.5]nonan-2-yl)methyl)-2,2-difluorocyclopropyl)methoxy)-8-(6-chloro-5-(1-fluorocyclopropyl)-1H-indazol-4-yl)pyrido[4′,3′:4,5]thieno[2,3-d]pyrimidin-4-yl)-6-methyl-1,4-oxazepan-6-ol]
0.0576 µM | 0.0201 µM | 0.0041 µM | 1.06 µM | 0.0497 µM | 0.0159 µM | 0.0184 µM | 0.0152 µM | 0.0496 µM | C[C@H]1CCN1C[C@@]1(COc2nc(N3CCOC[C@@](C)(O)C3)c3c(n2)sc2c(-c4c(C5(F)CC5)c(Cl)cc5[nH]ncc45)nccc23)CC1(F)F [Ex-253, (6S)-4-(8-(6-chloro-5-(1-fluorocyclopropyl)-1H-indazol-4-yl)-2-(((R)-2,2-difluoro-1-(((S)-2-methylazetidin-1-yl)methyl)cyclopropyl)metho-xy)pyrido[4′,3′:4,5]thieno[2,3-d]pyrimidin-4-yl)-6-methyl-1,4-oxazepan-6-ol]

The next lines start with the compound.

Structure (SMILES) | IC50 (AsPC-1 cells) | IC50 (KRAS-WT) | IC50 (KRAS-G12D) | IC50 (HRAS) | IC50 (MKN-1 cells) | IC50 (KRAS-G12V) | IC50 (KRAS-G13D) | IC50 [1] | IC50 (SW620 cells)
C[C@@]1(O)COCCN(c2nc(OC[C@@]34CCCN3C/C(=C/F)C4)nc3sc4c(-c5c(C6CC6)c(Cl)cc6[nH]ncc56)nccc4c23)C1 [Ex-209, (6S)-4-(8-(6-chloro-5-cyclopropyl-1H-indazol-4-yl)-2-(((S,E)-2-(fluoro-methylene)tetra-hydro-1H-pyrrol-izin-7a(5H)-yl)-methoxy)pyrido [4′,3′:4,5]thieno [2,3-d]pyrimidin-4-yl)-6-methyl-1,4-oxazepan-6-ol] | 0.053 µM | 0.00946 µM | 0.00291 µM | 9.43 µM | 0.158 µM | 0.012 µM | 0.0136 µM | 0.0477 µM | 0.0497 µM
C[C@@]1(O)COCCN(c2nc(OC[C@]3(CN4CC5(CC(F)C5)C4)CC3(F)F)nc3sc4c(-c5c(C6CC6)c(Cl)cc6[nH]ncc56)nccc4c23)C1 [Ex-230] | 0.0515 µM | 0.0885 µM | 0.016 µM | 1.64 µM | 0.0527 µM | 0.0701 µM | 0.0139 µM | 0.0211 µM | 0.0232 µM
COC1(C)CN(C[C@@]2(COc3nc(N4CCOC[C@@](C)(O)C4)c4c(n3)sc3c(-c5c(C6(F)CC6)c(Cl)cc6[nH]ncc56)nccc34)CC2(F)F)C1 [Ex-240, (6S)-4-(8-(6-chloro-5-(1-fluorocyclopropyl)-1H-indazol-4-yl)-2-(((R)-2,2-difluoro-1-((3-methoxy-3-methylazetidin-1-yl)methyl)cyclopropyl)metho-xy)pyrido[4′,3′:4,5]thieno[2,3-d]pyrimidin-4-yl)-6-methyl-1,4-oxazepan-6-ol] | 0.0588 µM | 0.02 µM | 0.00431 µM | 2.22 µM | 0.0393 µM | 0.0104 µM | 0.0458 µM | 0.0194 µM | 0.0361 µM
C[C@@]1(O)COCCN(c2nc(OC[C@]3(CN4CC5(CCOC5)C4)CC3(F)F)nc3sc4c(-c5c(C6(F)CC6)c(Cl)cc6[nH]ncc56)nccc4c23)C1 [Ex-245, (6S)-4-(2-(((R)-1-((6-oxa-2-azaspiro[3.4]octan-2-yl)methyl)-2,2-difluorocyclopropyl)methoxy)-8-(6-chloro-5-(1-fluorocyclopropyl)-1H-indazol-4-yl)pyrido[4′,3′:4,5]thieno[2,3-d)pyrimidin-4-yl)-6-methyl-1,4-oxazepan-6-ol] | 0.0704 µM | 0.0185 µM | 0.00422 µM | 1.29 µM | 0.044 µM | 0.0129 µM | 0.0159 µM | 0.0191 µM | 0.0476 µM
